Experimental data published in the supplement of paper PMC11061612.

Legend:
Experiment in all cases: Bliss excess, mean over the matrix (fraction); higher = more synergy
[1] = system: 647-V (Bladder Carcinoma)
How it was run: (§1)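 Cell lines grown in DMEM/F12 or RPMI with 10% FBS were plated in 1536-well plates and held 24 hours at 37°C, 5% CO2 before 72 hours of exposure to two-drug dose matrices, with DMSO typically at 0.2%. CellTiter-Glo 2.0 luminescence gave viability, which was converted to inhibition. Vehicle wells were set to 0 and blank wells to 1. Combination Emax is the second-highest inhibition in the matrix, and Bliss excess is the observed combination effect minus the expected EA + EB − EA·EB, where EA and EB are the single-agent effects.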

[2] = system: CS1 (Chondrosarcoma)
How it was run: as §1

[3] = system: DOK (Oral Cavity Carcinoma)
How it was run: as §1

[4] = system: EKVX (Non-Small Cell Lung Carcinoma)
How it was run: as §1

[5] = system: HCC1143 (Breast Carcinoma)
How it was run: as §1

[6] = system: HCC38 (Breast Carcinoma)
How it was run: as §1

[7] = system: HCT-116 (Colorectal Carcinoma)
How it was run: as §1

[8] = system: HLE (Hepatocellular Carcinoma)
How it was run: as §1

[9] = system: HOP-92 (Non-Small Cell Lung Carcinoma)
How it was run: as §1

[10] = system: JHH-6 (Hepatocellular Carcinoma)
How it was run: as §1

[11] = system: MCF7 (Breast Carcinoma)
How it was run: as §1

[12] = system: MES-SA (Other Solid Carcinomas)
How it was run: as §1

[13] = system: NCI-H1688 (Small Cell Lung Carcinoma)
How it was run: as §1

[14] = system: NOMO-1 (Acute Myeloid Leukemia)
How it was run: as §1

[15] = system: PA-TU-8902 (Pancreatic Carcinoma)
How it was run: as §1

[16] = system: SK-UT-1 (Other Solid Carcinomas)
How it was run: as §1

[17] = system: SKN-3 (Head and Neck Carcinoma)
How it was run: as §1

[18] = system: SW948 (Colorectal Carcinoma)
How it was run: as §1

[19] = system: U-118-MG (Low Grade Glioma)
How it was run: as §1

[20] = system: YT (Other Blood Carcinomas)
How it was run: as §1

SMILES	Bliss excess [1]	Bliss excess [2]	Bliss excess [3]	Bliss excess [4]	Bliss excess [5]	Bliss excess [6]	Bliss excess [7]	Bliss excess [8]	Bliss excess [9]	Bliss excess [10]	Bliss excess [11]	Bliss excess [12]	Bliss excess [13]	Bliss excess [14]	Bliss excess [15]	Bliss excess [16]	Bliss excess [17]	Bliss excess [18]	Bliss excess [19]	Bliss excess [20]
CC1(C)CCC(CN2CCN(c3ccc(C(=O)NS(=O)(=O)c4ccc(NCC5CCOCC5)c([N+](=O)[O-])c4)c(Oc4cnc5[nH]ccc5c4)c3)CC2)=C(c2ccc(Cl)cc2)C1 [Venetoclax] + C[C@@H]1COCCN1C2=NC(=NC(=C2)C3(CC3)[S@](=N)(=O)C)C4=C5C=CNC5=NC=C4 [AZD6738] (first compound max 1 µM, 7x7, partner max 10 µM)	-0.0317	0.0039	-0.0833	-0.054	-0.0573	-0.0264	-0.0703	-0.063	-0.0427	-0.03	0.0003	0.0105	0.0294	0.015	-0.0236	-0.0299	-0.043	-0.0835	-0.0106	0.0174
CC1(C)CCC(CN2CCN(c3ccc(C(=O)NS(=O)(=O)c4ccc(NCC5CCOCC5)c([N+](=O)[O-])c4)c(Oc4cnc5[nH]ccc5c4)c3)CC2)=C(c2ccc(Cl)cc2)C1 [Venetoclax] + CCN(CCO)CCCOc1ccc2c(Nc3cc(CC(=O)Nc4cccc(F)c4)[nH]n3)ncnc2c1 [AZD2811] (first compound max 1 µM, 7x7, partner max 1 µM)	0.0533	-0.0259	-0.0249	-0.044	0.0005	0.0347	0.008	0.005	0.0135	-0.049	0.0142	0.0315	0.0436	0.182	-0.0417	0.0491	-0.0167	-0.0229	-0.0032	-0.0328
